From PMC8271538, “Chemical Modulation of the 1-(Piperidin-4-yl)-1,3-dihydro-2H-benzo[d]imidazole-2-one Scaffold as a Novel NLRP3 Inhibitor” (Molecules, 2021)
Values joined by “and” are separate entries in the source; they are usually repeats but may differ in a detail not shown here. Identical values can stand only once. Like-named read-outs stand apart in the source and are kept apart here. Marks after values point to notes of the source that are not given here.

Assays:
[1] = tested on: NLRP3-dependent pyroptosis in differentiated THP-1 cells; assay: NLRP3-dependent pyroptosis (LDH release) in PMA-differentiated, LPS-primed, ATP-triggered THP-1 cells; type: cell-based, human; settings: for inhibition at 10 µM: THP-1, 1.5 h, read-out: Pyroptosis Decrease, % inhibition at 10 µM
[2] = target: T1, human recombinant NLRP3 (Homo sapiens, UniProt Q96P20); assay: In vitro NLRP3 ATPase activity, on-bead ADP-Glo assay with immobilised NLRP3-GFP; type: biochemical; settings: for Inhibition of NLRP3 ATPase activity (% reduction in ATP hydrolysis relative to vehicle control) / inhibition at 100 µM: 100 μM compound, ATP 800 μM, mean ± SEM, n = 4; for NLRP3 ATPase inhibition at 1 mM compared with 100 µM: 1 mM vs 100 µM compound, data not shown; for inhibition at 100 µM: read-out: Inhibition of NLRP3 ATPase activity (% reduction in ATP hydrolysis relative to vehicle control)
T1 construct: made in house; host or cells: HEK293T cells (transient transfection, captured from lysate on GFP-Trap Sepharose)
T1 sequence (Q96P20 whole entry): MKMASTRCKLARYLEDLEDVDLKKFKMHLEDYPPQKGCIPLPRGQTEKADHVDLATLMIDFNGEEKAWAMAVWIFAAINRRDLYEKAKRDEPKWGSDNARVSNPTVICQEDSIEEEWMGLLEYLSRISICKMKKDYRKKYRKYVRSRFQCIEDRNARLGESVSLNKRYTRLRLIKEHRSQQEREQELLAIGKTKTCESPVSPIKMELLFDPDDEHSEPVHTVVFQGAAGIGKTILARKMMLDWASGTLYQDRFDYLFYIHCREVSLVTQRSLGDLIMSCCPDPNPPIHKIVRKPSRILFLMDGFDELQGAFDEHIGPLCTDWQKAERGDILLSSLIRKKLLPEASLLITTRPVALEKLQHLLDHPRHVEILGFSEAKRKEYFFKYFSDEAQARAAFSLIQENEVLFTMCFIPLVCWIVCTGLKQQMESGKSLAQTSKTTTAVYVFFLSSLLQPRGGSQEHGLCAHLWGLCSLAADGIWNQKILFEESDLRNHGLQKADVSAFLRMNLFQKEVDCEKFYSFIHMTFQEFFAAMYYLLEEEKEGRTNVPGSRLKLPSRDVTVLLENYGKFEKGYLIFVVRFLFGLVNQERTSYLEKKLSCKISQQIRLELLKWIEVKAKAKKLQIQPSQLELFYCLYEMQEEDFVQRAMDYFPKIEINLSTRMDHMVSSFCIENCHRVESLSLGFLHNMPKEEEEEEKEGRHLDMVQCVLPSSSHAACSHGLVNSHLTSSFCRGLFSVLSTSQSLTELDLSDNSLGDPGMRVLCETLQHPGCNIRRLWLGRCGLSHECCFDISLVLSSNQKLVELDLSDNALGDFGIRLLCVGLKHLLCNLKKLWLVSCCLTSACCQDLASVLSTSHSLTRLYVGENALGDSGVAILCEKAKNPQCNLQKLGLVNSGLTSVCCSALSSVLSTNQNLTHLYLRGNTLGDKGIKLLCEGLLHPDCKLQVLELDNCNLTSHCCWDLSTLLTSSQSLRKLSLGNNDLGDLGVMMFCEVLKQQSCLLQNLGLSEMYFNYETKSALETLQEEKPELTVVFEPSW

[3] = tested on: THP-1 cells
[4] = tested on: IL-1β release in differentiated THP-1 cells; assay: IL-1β release (ELISA) in supernatants of LPS/ATP-treated differentiated THP-1 cells; type: cell-based, human; settings: same experiments as pyroptosis, vs vehicle-treated cells, mean ± SEM; for IL-1β Inhibition, % inhibition at 10 µM: 10 µM test compound; for inhibition at 10 µM: Homo sapiens, THP-1, 10 µM test compound
Protocol: Different techniques could be used to study NLRP3 inhibitors; the use of differentiated THP-1 cells treated with NLRP3 activating stimuli is suitable for the screening of large series of compounds [48]. All the synthesised compounds (Figure 2) were evaluated for their NLRP3 inhibitory activity by measuring their ability to prevent NLRP3-dependent pyroptosis in differentiated THP-1 cells. THP-1 cells were differentiated into macrophages by treatment with phorbol-myristate acetate (PMA; 50 nM; 24 h) and then treated with lipopolysaccharide (LPS; 10 µg/mL; 4 h) to promote NLRP3 expression. The cells were then incubated with test compounds at the fixed concentration of 10 µM for 1 h. Test compounds were dissolved in serum free medium containing 0.1% DMSO as the vehicle. NLRP3 was activated by the addition of ATP (5 mM), and the pyroptotic cell death was evaluated after 1.5 h by measuring the lactate dehydrogenase (LDH) released in the cell supernatants. The obtained results, expressed as pyroptosis% decrease with respect to vehicle-treated cells, are collected in Table 1. In the same experiments, the release of IL-1β was measured via an ELISA assay and the results, expressed as % inhibition of IL-1β release versus vehicle-treated cells, are reported in Table 1. Finally, the cytotoxicity of the synthesised compounds was evaluated by MTT assay after treatment of THP-1 cells with increasing concentration of test compounds (0.1–100 µM) for 72 h. […] The structural modulation of compound 2 was then carried out in order to understand whether it was possible to restore/increase the activity without the re-introduction of a Michael acceptor substructure.
Human myelomonocytic THP-1 cells were cultured in RPMI 1640 medium (Aurogene, Rome, Italy) supplemented with fetal bovine serum (10%; Aurogene), L-glutamine (2 mM; Aurogene), penicillin (100 IU/mL; Aurogene) and streptomycin ([…]; Aurogene). Cell culture medium was replaced every 2−3 days, and the cultures were maintained at 37 °C and 5% CO2 in a fully humidified incubator. The day before each experiment, cells were plated in 48-well culture plates (90.000 cells/well) and were differentiated by treatment with PMA (50 nM, 24 h; Sigma-Aldrich). PMA-differentiated THP-1 cells were washed twice with phosphate-buffered saline (PBS) and primed with LPS (10 μg/mL, 4 h; Sigma-Aldrich) in serum-free medium. Cells were then incubated with compounds dissolved in medium containing 0.1% DMSO for 1 h and cell death was triggered with ATP (5 mM, 90 min; Sigma-Aldrich). MCC950 (Sigma-Aldrich batch #45216 and batch #85021 and from Crysdot (product n. CD31002496; OS05876-18070932) was used in the experiments.
IL-1β release was quantified in differentiated THP-1 supernatant, obtained as previously described, using Human IL-1 beta Uncoated ELISA kit (Invitrogen, Waltham, MA, USA), according to the manufacture’s instruction.

[5] = 10 µM test compound, 1 h before ATP (5 mM, 90 min), vs vehicle-treated cells, mean ± SEM, NA = not active at 10 µM
[6] = Homo sapiens, 10 µM test compound, 1 h before ATP (5 mM, 90 min), vs vehicle-treated cells, mean ± SEM, NA = not active at 10 µM
[7] = 72 h treatment, 0.1–100 µM, MTT, TC50 ± SEM of three experiments

In the case of “1-(1-(2-(2-chlorophenyl)acetyl)piperidin-4-yl)-1,3-dihydro-2H-benzo[d]imidazol-2-one [Compound 4]”, the “Pyroptosis Decrease, % inhibition at 10 µM” value [1] is reported as “inactive”, the “Inhibition of NLRP3 ATPase activity (% reduction in ATP hydrolysis relative to vehicle control)” value [2] is reported as “reduce” and the “Cytotoxicity TC50” value [3] is reported as 80.9 ± 3.2 µM.
With “2-(3-(3-(2-chlorophenyl)propanoyl)-2-oxo-2,3-dihydro-1H-benzo[d]- imidazol-1-yl)propionic acid [Compound 21]” the “Pyroptosis Decrease, % inhibition at 10 µM” value [1, 5] was “the activity was suppressed”, the “Inhibition of NLRP3 ATPase activity (% reduction in ATP hydrolysis relative to vehicle control)” value [2] was “reduced the inhibitory potential” and the “Cytotoxicity TC50” value [3] was 80.1 ± 1.4 µM.
“3-(2-chlorophenyl)-N-(2-oxo-2-(4-(2-oxo-2,3-dihydro-1H-benzo[d]imidazol-1-yl)piperidin-1-yl)ethyl)propenamide [Compound 6]” was tested, and the “Pyroptosis Decrease, % inhibition at 10 µM” value [1, 5] was “about 35%”, the “Pyroptosis Decrease, % inhibition at 10 µM” value ([1]; 10 µM test compound, 1 h before ATP (5 mM, 90 min), vs vehicle-treated cells, mean ± SEM, NA = not active at 10 µM, listed as 6 (INF148)) was 35.0 ± 6.9 ^d % and the “IL-1β Inhibition, % inhibition at 10 µM” value ([4]; 10 µM) was 18–21%. The “IL-1β Inhibition, % inhibition at 10 µM” value ([4]; listed as 6 (INF148), 10 µM) was 21.0 ± 3.2 ^d %, the “Inhibition of NLRP3 ATPase activity (% reduction in ATP hydrolysis relative to vehicle control)” value [2] was 22.5 ± 1.4% and the “NLRP3 ATPase inhibition at 1 mM compared with 100 µM” value [2] was “no significant differences”. The “Cytotoxicity TC50” value [3] was 61.7 ± 1.0 µM.
“3-(2-chlorophenyl)-N-(4-oxo-4-(4-(2-oxo-2,3-dihydro-1H-benzo[d]imidazol-1-yl)piperidin-1-yl)butyl)propenamide [Compound 8]” was tested, and the “Pyroptosis Decrease, % inhibition at 10 µM” value [1, 5] was 32.2 ± 10.6 ^d % and the “Cytotoxicity TC50” value [3] was 86.3 ± 5.1 µM.
In the case of “3-(2-chlorophenyl)-N-methyl-N-(3-(2-oxo-2,3-dihydro-1H-benzo[d]imidazole-1-yl)propyl)propenamide [Compound 11]”, the “Pyroptosis Decrease, % inhibition at 10 µM” value [1] is reported as “inactive”.
For `C=C(Cc1ccccc1Cl)C(=O)N1CCC(n2c(=O)[nH]c3ccccc32)CC1` [Compound 1, 1-(1-(2-(2-chlorobenzyl)acryloyl)piperidin-4-yl)-1,3-dihydro-2H-benzo[d]imidazol-2-one], the inhibition at 10 µM [1, 6] was 24.9 ± 6.3%, the “IL-1β Inhibition, % inhibition at 10 µM” value ([4]; 10 µM) was 14.4 ± 5.0% and the inhibition at 10 µM [4] was 19.4 ± 0.4%. For the same molecule, the inhibition at 100 µM [2] was 28.4 ± 2.6% and the “Cytotoxicity TC50” value [3, 7] was 32.9 ± 19 µM and 32.9 ± 19.0 µM.
Molecule `O=C(CCc1ccccc1Cl)N1CCC(n2c(=O)[nH]c3ccccc32)CC1` [Compound 2, 1-(1-(3-(2-chlorophenyl)propanoyl)piperidin-4-yl)-1,3-dihydro-2H-benzo[d]imidazol-2-one] has an inhibition at 50 µM ([1]; Homo sapiens, THP-1, 50 µM test compound) of 29.1 ± 4.8%, an inhibition at 10 µM [1, 6] of 14.9 ± 5.8% and an inhibition at 10 µM [4] of 10.3 ± 5.8%. For the same molecule, the inhibition at 100 µM [2] was 28.6 ± 5.5% and the “Cytotoxicity TC50” value [3, 7] was 64.1 ± 4.7 µM.
For `O=C(CCc1ccccc1Cl)NCCC(=O)N1CCC(n2c(=O)[nH]c3ccccc32)CC1` [Compound 7, 3-(2-chlorophenyl)-N-{3-oxo-3-[4-(2-oxo-2,3-dihydro-1,3-benzodiazol-1-yl)piperidin-1-yl]propyl}propanamide], the inhibition at 10 µM [1, 6] was about 35%, the “IL-1β Inhibition, % inhibition at 10 µM” value ([4]; 10 µM) was 17.8 ± 7.5% and the inhibition at 10 µM [4] was 18 to 21%. The “Cytotoxicity TC50” value [3, 7] was 62.4 ± 13.3 µM.
With `O=C(CCc1ccccc1Cl)NCCn1c(=O)[nH]c2ccccc21` [Compound 9, 3-(2-chlorophenyl)-N-(2-(2-oxo-2,3-dihydro-1H-benzo[d]imidazol-1-yl)ethyl) propanamide] the inhibition at 1 µM ([1]; Homo sapiens, THP-1, 1 µM test compound (Figure 3)) was 20 to 30%, the inhibition at 10 µM [1, 6] was 39.2 ± 6.6% and the inhibition at 10 µM [4] was 20.3 ± 1.3%. For the same molecule, the “Inhibition of NLRP3 ATPase activity (% reduction in ATP hydrolysis relative to vehicle control)” value [2] was “restored the ATPase inhibition”, the inhibition at 100 µM [2] was 18.3 ± 3.2% and the “NLRP3 ATPase inhibition at 1 mM compared with 100 µM” value [2] was “no significant differences”. The “Cytotoxicity TC50” value [3, 7] was 87.1 ± 1.9 µM.
`O=C(CCc1ccccc1Cl)NCCCn1c(=O)[nH]c2ccccc21` [Compound 10, 3-(2-chlorophenyl)-N-(3-(2-oxo-2,3-dihydro-1H-benzo[d]imidazol-1-yl)propyl) propanamide] was tested, and the “Pyroptosis Decrease, % inhibition at 10 µM” value [1, 5] was “inactive”, the “Inhibition of NLRP3 ATPase activity (% reduction in ATP hydrolysis relative to vehicle control)” value [2] was “no effect on ATPase inhibition was detected” and the “Cytotoxicity TC50” value [3, 7] was over 100 µM.
With `CNC(=NC#N)NC1CCN(C(=O)CCc2ccccc2Cl)CC1` [Compound 12, 1-(1-(3-(2-chlorophenyl)propanoyl)piperidin-4-yl)-2-cyano-3-methylguanidine] the inhibition at 10 µM [1, 6] was 15.7 ± 9.1%, the inhibition at 10 µM [4] was 19 ± 0.4% and the “Cytotoxicity TC50” value [3, 7] was over 100 µM.
`O=C(CCc1ccccc1Cl)N1CCC(n2cnc3ccccc32)CC1` [Compound 14, 1-(4-(1H-benzo[d]imidazol-1-yl)piperidin-1-yl)-3-(2-chlorophenyl)propan-1-one] was tested, and the “Pyroptosis Decrease, % inhibition at 10 µM” value [1, 5] was “inactive” and the “Cytotoxicity TC50” value [3, 7] was 92.6 ± 4.0 µM.
In the case of `N#CN=c1[nH]c2ccccc2n1C1CCN(C(=O)CCc2ccccc2Cl)CC1` [Compound 15, N-(1-(1-(3-(2-chlorophenyl)propanoyl)piperidin-4-yl)-1,3-dihydro-2H-benzo[d]imidazol-2-ylidene)cyanamide], the “Pyroptosis Decrease, % inhibition at 10 µM” value [1, 5] is reported as “inactive”, the “Inhibition of NLRP3 ATPase activity (% reduction in ATP hydrolysis relative to vehicle control)” value [2] is reported as “significant inhibition of ATPase activity” and the “Cytotoxicity TC50” value [3, 7] is reported as 83.4 ± 0.8 µM.
With `O=C(CCc1ccccc1Cl)n1c(=O)[nH]c2ccccc21` [Compound 16, 1-(3-(2-chlorophenyl)propanoyl)-1,3-dihydro-2H-benzo[d]imidazol-2-one] the inhibition at 10 µM [1, 6] was 37.7 ± 7.6%, the inhibition at 10 µM [4] was 14.9 ± 8.8% and the “Cytotoxicity TC50” value [3, 7] was 77.3 ± 3.7 µM.
`CCOC(=O)Cn1c(=O)n(CCc2ccccc2Cl)c2ccccc21` [Compound 22, Ethyl 2-(3-(2-chlorophenethyl)-2-oxo-2,3-dihydro-1H-benzo[d]imidazol-1-yl) acetate] was tested, and the “Cytotoxicity TC50” value [3, 7] was 92.8 ± 2.1 µM.
For `O=C(O)Cn1c(=O)n(CCc2ccccc2Cl)c2ccccc21` [Compound 23, 2-(3-(2-chlorophenethyl)-2-oxo-2,3-dihydro-1H-benzo[d]imidazol-1-yl)acetic acid], the inhibition at 10 µM [1, 6] was 26.3 ± 3.5%, the inhibition at 10 µM [4] was 13.9 ± 16.4% and the “Cytotoxicity TC50” value [3, 7] was 62.4 ± 1.2 µM.
`CC(C)(O)c1coc(S(=O)(=O)NC(=O)Nc2c3c(cc4c2CCC4)CCC3)c1` [MCC950, reference compound] was tested, and the inhibition at 10 µM [4] was 37.6 ± 6% and the “Cytotoxicity TC50” value [3, 7] was over 100 µM.
For “Ethyl 2-(3-(3-(2-chlorophenyl)propanoyl)-2-oxo-2,3-dihydro-1H-benzo[d] imidazol-1-yl)propanoate [Compound 20]”, the “Pyroptosis Decrease, % inhibition at 10 µM” value [1, 5] was 24.4 ± 6.8%, the “IL-1β Inhibition, % inhibition at 10 µM” value [4] was 13.8 ± 5.4% and the “Cytotoxicity TC50” value [3] was 57.6 ± 3.2 µM.
